pIC50: −log10 of the molar value.
Legend:
His6-JNK2 = target: T1, His6-JNK2 (Homo sapiens, UniProt P45984); assay: JNK assay (c-Jun phosphorylation), JNK2; type: biochemical; settings: read-out: IC50 for JNK2 (c-Jun phosphorylation reduced to 50% of control)
T1 construct: His6 (N)
Method: (§1) To 10 μL of 5-amino-anthra(9,1-cd)isothiazol-6-one in 20% DMSO/80% dilution buffer containing of 20 mM HEPES (pH 7.6), 0.1 mM EDTA, 2.5 mM magnesium chloride, 0.004% Triton ×100, 2 μg/mL leupeptin, 20 mM β-glycerolphosphate, 0.1 mM sodium vanadate, and 2 mM DTT in water was added 30 μL of 50-200 ng His6-JNK1, JNK2, or JNK3 in the same dilution buffer. The mixture was pre-incubated for 30 minutes at room temperature. Sixty microliter of 10 μg GST-c-Jun(1-79) in assay buffer consisting of 20 mM HEPES (pH 7.6), 50 mM sodium chloride, 0.1 mM EDTA, 24 mM magnesium chloride, 1 mM DTT, 25 mM PNPP, 0.05% Triton ×100, 11 μM ATP, and 0.5 μCi γ-32P ATP in water was added and the reaction was allowed to proceed for 1 hour at room temperature. The c-Jun phosphorylation was terminated by addition of 150 μL of 12.5% trichloroacetic acid. After 30 minutes, the precipitate was harvested onto a filter plate, diluted with 50 μL of the scintillation fluid and quantified by a counter. The IC50 values were calculated as the concentration of 5-amino-anthra(9,1-cd)isothiazol-6-one at which the c-Jun phosphorylation was reduced to 50% of the control value. Compounds that inhibit JNK preferably have an IC50 value ranging 0.01-10 μM in this assay. 5-Amino-anthra(9,1-cd)isothiazol-6-one has an IC50 according to this assay of 1 μM for JNK2 and 400 nM for JNK3.

His6-JNK3 = target: T2, His6-JNK3 (Homo sapiens, UniProt P53779); assay: JNK assay (c-Jun phosphorylation), JNK3; type: biochemical; settings: read-out: IC50 for JNK3 (c-Jun phosphorylation reduced to 50% of control)
T2 construct: His6 (N)
Method: as §1

p38-2 = p38-2 (Homo sapiens, UniProt Q15759); assay: Selectivity for JNK: protein kinase panel, p38-2; type: biochemical
Method: (§2) 5-Amino-anthra(9,1-cd)isothiazol-6-one was also assayed for its inhibitory activity against several protein kinases, listed below, using techniques known to those skilled in art (See, e.g., Protein Phosphorylation, Sefton & Hunter, Eds., Academic Press, pp. 97-367, 1998).

MEK6 = target: T3, MEK6 (Homo sapiens, UniProt P52564); assay: Selectivity for JNK: protein kinase panel, MEK6; type: biochemical
T3 sequence (P52564 1-334): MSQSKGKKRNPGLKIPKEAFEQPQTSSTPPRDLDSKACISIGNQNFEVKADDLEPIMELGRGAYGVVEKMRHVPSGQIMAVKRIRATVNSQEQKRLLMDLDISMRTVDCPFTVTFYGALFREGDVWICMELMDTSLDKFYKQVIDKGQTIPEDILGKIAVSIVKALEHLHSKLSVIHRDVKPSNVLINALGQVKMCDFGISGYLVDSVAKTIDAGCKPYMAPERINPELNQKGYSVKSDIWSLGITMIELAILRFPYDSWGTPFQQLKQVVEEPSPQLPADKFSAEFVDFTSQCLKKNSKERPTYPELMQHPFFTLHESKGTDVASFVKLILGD
Method: as §2

LKK1 = target: T4, LKK1 (Homo sapiens, UniProt O15111); assay: Selectivity for JNK: protein kinase panel, LKK1; type: biochemical
T4 sequence (O15111 1-745): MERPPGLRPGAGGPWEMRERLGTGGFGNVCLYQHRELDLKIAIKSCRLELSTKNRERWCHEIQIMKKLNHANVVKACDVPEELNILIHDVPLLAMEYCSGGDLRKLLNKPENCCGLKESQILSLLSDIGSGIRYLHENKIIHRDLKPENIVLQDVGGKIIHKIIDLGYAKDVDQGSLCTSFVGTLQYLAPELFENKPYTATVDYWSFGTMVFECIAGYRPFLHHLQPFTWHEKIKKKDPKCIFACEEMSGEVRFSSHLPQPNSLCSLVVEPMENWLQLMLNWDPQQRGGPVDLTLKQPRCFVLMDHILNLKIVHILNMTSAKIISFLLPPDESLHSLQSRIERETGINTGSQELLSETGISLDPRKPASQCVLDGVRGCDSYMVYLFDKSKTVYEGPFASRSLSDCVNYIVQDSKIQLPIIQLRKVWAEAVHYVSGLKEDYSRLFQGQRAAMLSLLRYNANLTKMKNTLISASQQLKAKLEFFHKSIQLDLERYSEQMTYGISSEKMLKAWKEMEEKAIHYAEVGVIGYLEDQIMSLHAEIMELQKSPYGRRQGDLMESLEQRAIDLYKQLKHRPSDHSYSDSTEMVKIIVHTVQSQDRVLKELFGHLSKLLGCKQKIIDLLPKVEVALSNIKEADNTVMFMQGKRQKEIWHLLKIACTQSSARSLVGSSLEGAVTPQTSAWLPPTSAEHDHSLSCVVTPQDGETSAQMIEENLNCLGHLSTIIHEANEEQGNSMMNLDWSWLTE
Method: as §2

IKK2 = target: T5, IKK2 (Homo sapiens, UniProt O14920); assay: Selectivity for JNK: protein kinase panel, IKK2; type: biochemical
T5 sequence (O14920 1-756): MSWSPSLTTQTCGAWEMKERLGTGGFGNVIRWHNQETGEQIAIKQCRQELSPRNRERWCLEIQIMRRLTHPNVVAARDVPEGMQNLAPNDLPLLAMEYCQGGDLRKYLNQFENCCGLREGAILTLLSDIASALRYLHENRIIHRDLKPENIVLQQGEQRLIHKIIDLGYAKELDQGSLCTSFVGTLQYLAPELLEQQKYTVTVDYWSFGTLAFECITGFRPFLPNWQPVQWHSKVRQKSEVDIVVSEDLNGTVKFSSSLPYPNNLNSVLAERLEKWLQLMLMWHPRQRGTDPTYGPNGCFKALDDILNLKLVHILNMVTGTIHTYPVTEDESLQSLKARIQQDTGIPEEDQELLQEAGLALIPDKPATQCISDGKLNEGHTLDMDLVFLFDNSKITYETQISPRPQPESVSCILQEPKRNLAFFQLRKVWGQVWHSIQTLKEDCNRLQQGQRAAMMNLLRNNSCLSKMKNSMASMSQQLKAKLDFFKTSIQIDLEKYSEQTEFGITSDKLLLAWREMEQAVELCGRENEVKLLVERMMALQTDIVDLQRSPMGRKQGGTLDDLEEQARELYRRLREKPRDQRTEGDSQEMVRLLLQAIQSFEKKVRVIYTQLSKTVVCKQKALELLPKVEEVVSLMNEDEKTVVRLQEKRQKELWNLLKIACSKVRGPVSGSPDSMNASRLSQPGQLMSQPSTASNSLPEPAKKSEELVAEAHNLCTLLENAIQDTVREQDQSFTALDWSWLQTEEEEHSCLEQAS
Method: as §2

[1] = system: IL-2 production in Jurkat T cells (clone E6-1); assay: Jurkat T-cell IL-2 production assay; type: cell-based; settings: Homo sapiens, 10 h, read-out: IC50, IL-2 production reduced to 50% of control
Method: Jurkat T cells (clone E6-1) were purchased from the American Type Culture Collection of Manassas, Va. and maintained in growth media consisting of RPMI 1640 medium containing 2 mM L-glutamine (commercially available from Mediatech Inc. of Hemdon, Va.), with 10% fetal bovine serum (commercially available from Hyclone Laboratories Inc. of Omaha, Nebr.) and penicillin/streptomycin. All cells were cultured at 37° C. in 95% air and 5% CO2. Cells were plated at a density of 0.2×10^6 cells per well in 200 μL of media. Compound stock (20 mM) was diluted in growth media and added to each well as a 10× concentrated solution in a volume of 25 μL, mixed, and allowed to pre-incubate with cells for 30 minutes. The compound vehicle (dimethylsulfoxide) was maintained at a final concentration of 0.5% in all samples. After 30 minutes the cells were activated with PMA (phorbol myristate acetate, final concentration 50 ng/mL) and PHA (phytohemagglutinin, final concentration 2 μg/mL). PMA and PHA were added as a 10× concentrated solution made up in growth media and added in a volume of 25 μL per well. Cell plates were cultured for 10 hours. Cells were pelleted by centrifugation and the media removed and stored at −20° C. Media aliquots are analyzed by sandwich ELISA for the presence of IL-2 as per the manufacturers instructions (Endogen Inc. of Woburn, Mass.). […]

[2] = system: rat ventral mesencephalan dopaminergic neurons; assay: [3H]Dopamine cell culture assay (6-OHDA neurotoxicity); type: cell-based; settings: 6-OHDA 30 μM, uptake 22 hours after exposure
Method: Cultures of dopaminergic neurons were prepared according to a modification of the procedure described by Raymon and Leslie (J. Neurochem. 62:1015-1024, 1994). Time-mated pregnant rats were sacrificed on embyronic day 14-15 (crown rump length 11-12 mm) and the embryos removed by cesarean section. The ventral mesencephalon, containing the dopaminergic neurons, was dissected from each embryo. Tissue pieces from approximately 48 embryos were pooled and dissociated both enzymatically and mechanically. An aliquot from the resulting cell suspension was counted and the cells were plated in high glucose DMEM/F12 culture medium with 10% fetal bovine serum at a density of 1×10^5 cells/well of a Biocoat poly-D-lysine-coated 96-well plate. The day following plating was considered 1 day in vitro (DIV). Cells were maintained in a stable environment at 37° C., 95% humidity, and 5% CO2. A partial medium change was performed at 3 DIV. […]
[^3H]Dopamine uptake is used as a measure of the health and integrity of dopaminergic neurons in culture (Prochiantz et al., PNAS 76: 5387-5391, 1979). […] Briefly, cells treated with 6-OHDA in the presence and absence of 5-amino-anthra(9,1-cd)isothiazol-6-one were assessed in the uptake assay 22 hrs after exposure to 6-OHDA. […] Radioactivity was removed and the cultures were washed 3× with ice cold PBS. […]

[3] = Brain-blood plasma distribution in vivo; parameters: species or system Sprague-Dawley rats; settings: rat
Method: 5-Amino-anthra(9,1-cd)isothiazol-6-one was administered intravenously (10 mg/kg) into the veins of Sprague-Dawley rats. After 2 hr, blood samples were obtained from the animals and their vascular systems were perfused with approximately 100 mL of saline to rid their brains of blood. The brains were removed from the animals, weighed, and homogenized in a 50 mL conical tube containing 10 equivalents (w/v) of methanol/saline (1:1) using a Tissue Tearer (Fischer Scientific). The homogenized material was extracted by adding 600 μL of cold methanol to 250 μL of brain homogenate vortexed for 30 sec and subjected to centrifugation for 5 min. After centrifugation, 600 μL of the resulting supernatant was transferred to a clean tube and evaporated at room temperature under reduced pressure to provide a pellet. The resulting pellet was reconstituted in 250 μL of 30% aqueous methanol to provide a brain homogenate analysis sample. A plasma analysis sample was obtained using the brain homogenate analysis sample procedure described above by substituting plasma for brain homogenate. Standard plasma samples and standard brain homogenate samples containing known amounts of 5-amino-anthra(9,1-cd)isothiazol-6-one were also prepared by adding 5 μL of serial dilutions (50:1) of a solution of 5-amino-anthra(9,1-cd)isothiazol-6-one freshly prepared in cold ethanol to 250 μL of control rat plasma (Bioreclamation of Hicksville, N.Y.) or control brain homogenate. The standard plasma samples and standard brain homogenate samples were then subjected to the same extraction by protein precipitation, centrifugation, evaporation, and reconstitution procedure used for the brain homogenate to provide brain homogenate standard analysis samples and plasma standard analysis samples. The brain homogenate analysis samples, plasma analysis samples, and standard analysis samples were analyzed and compared using HPLC by injecting 100 μL of a sample onto a 5 μm C-18 Luna column (4.6 mm×150 mm, commercially available from Phenomenex of Torrance, Calif.) and eluting at 1 mL/min with a linear gradient of 30% aqueous acetonitrile containing 0.1% trifluoroacetic acid to 90% aqueous acetonitrile containing 0.1% trifluoroacetic acid over 8 minutes and holding at 90% aqueous acetonitrile containing 0.1% trifluoroacetic acid for 3 min. with absorbance detection at 450 nm. […] The concentration of 5-amino-anthra(9,1-cd) isothiazol-6-one in the brain and plasma was determined by comparing HPLC chromatograms obtained from the brain homogenate analysis samples and plasma analysis samples to standard curves constructed from analysis of the brain homogenate standard analysis samples and the plasma standard analysis samples, respectively. […]

[4] = Solubility in aqueous media (remark); type: physicochemical

T2 sequence (P53779 whole entry): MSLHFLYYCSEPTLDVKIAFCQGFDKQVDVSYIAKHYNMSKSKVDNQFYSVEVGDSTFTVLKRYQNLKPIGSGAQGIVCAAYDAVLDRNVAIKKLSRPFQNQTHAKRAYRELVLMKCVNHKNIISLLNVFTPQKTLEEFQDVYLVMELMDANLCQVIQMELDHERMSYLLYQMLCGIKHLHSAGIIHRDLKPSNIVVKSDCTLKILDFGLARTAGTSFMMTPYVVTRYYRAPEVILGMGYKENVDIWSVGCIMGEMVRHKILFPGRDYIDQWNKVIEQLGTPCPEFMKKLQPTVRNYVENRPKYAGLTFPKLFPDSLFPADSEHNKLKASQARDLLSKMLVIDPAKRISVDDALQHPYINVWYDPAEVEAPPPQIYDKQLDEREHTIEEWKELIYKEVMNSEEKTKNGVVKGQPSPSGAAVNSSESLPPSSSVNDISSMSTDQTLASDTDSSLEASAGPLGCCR
Sequence of p38-2 (Q15759 whole entry, species assumed): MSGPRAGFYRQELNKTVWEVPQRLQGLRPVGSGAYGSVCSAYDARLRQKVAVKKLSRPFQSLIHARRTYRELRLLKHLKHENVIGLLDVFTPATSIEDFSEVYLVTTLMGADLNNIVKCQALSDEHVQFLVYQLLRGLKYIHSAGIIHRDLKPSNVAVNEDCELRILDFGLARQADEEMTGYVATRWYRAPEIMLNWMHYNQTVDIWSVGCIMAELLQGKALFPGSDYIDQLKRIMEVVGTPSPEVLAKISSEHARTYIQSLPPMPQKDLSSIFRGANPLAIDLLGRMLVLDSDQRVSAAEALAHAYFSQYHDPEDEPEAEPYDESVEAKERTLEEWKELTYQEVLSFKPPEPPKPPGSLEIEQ
T1 sequence (P45984 whole entry): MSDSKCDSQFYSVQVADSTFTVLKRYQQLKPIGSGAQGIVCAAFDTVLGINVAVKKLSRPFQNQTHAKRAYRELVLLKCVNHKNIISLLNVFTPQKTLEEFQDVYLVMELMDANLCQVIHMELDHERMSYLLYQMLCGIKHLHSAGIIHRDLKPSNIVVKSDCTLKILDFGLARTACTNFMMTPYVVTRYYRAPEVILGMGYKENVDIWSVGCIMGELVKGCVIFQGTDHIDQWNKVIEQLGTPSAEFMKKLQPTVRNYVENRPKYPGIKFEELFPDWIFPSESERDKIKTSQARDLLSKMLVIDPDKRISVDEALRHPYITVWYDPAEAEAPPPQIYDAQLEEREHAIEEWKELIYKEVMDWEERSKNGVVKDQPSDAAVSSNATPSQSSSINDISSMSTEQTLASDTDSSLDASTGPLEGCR

## Nc1ccc2snc3c2c1C(=O)c1ccccc1-3 [5-amino-anthra(9,1-cd)isothiazol-6-one]
His6-JNK2
  pIC50: 6.00
His6-JNK3
  pIC50: 6.40
p38-2
  pIC50: < 4.52
MEK6
  pIC50: < 4.52
LKK1
  pIC50: < 4.52
IKK2
  pIC50: < 4.52
[1]
  pIC50: 4.52
[2]
  Protection of dopaminergic neurons from 6-OHDA ([3H]dopamine uptake): protects rat ventral mesencephalan neurons from the toxic effects of 6-OHDA
[3]; Sprague-Dawley, iv, 10 mg/kg intravenously, 2 hr post-dose, assuming 1 g brain tissue equivalent to 1 mL plasma, read-out: Brain-plasma concentration ratio
  Kp at 2 h: ~9
[3]; Sprague-Dawley, plasma, iv, 10 mg/kg intravenously, 2 hr post-dose
  concentration at 2 h: ~7 µM
[3]; 10 mg/kg intravenously, 2 hr post-dose
  Brain-drug concentration: approximately 65 nmole/g
[3]; following intravenous administration
  Blood-brain barrier crossing: crosses the blood-brain barrier to a significant extent
[4]
  Solubility in aqueous media: limited solubility
